Results from ChEMBL document CHEMBL1201862, “PubChem BioAssay data set” (2004).
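Growth conditions: 96-well plates. Treatment: test compound, 48 hours, 5 concentrations. Analysis: linear interpolation between bracketing concentrations; unreached endpoints set to highest concentration. GI50 is the concentration that inhibits growth by half.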 The source made the active and inactive calls. Rule as the data show it: active = GI50 up to about 1.1 µM and inactive = higher.

Key:
Assay in all cases: inhibition of tumour cell growth, NCI panel, 48 h
[1] = test system: SN12C
[2] = test system: ACHN
[3] = test system: SK-MEL-2
[4] = test system: A549
[5] = test system: SK-MEL-5
[6] = test system: OVCAR-4
[7] = test system: NCI-H226
[8] = test system: U-251
[9] = test system: PC-3
[10] = test system: KM12
[11] = test system: HCT-116
[12] = test system: SNB-19
[13] = test system: A498
[14] = test system: HT-29
[15] = test system: CAKI-1
[16] = test system: HOP-92
[17] = test system: SW-620
[18] = test system: LOX IMVI
[19] = test system: MCF7
[20] = test system: SK-OV-3

Measured: GI50

Cc1nnc([C@@]2(C)CC[C@H]3[C@@H](CCC4=CC(=O)CC[C@@]43C)[C@@H]2CC#N)o1
inactive: [1] > 100 µM | [2] > 100 µM | [3] > 100 µM | [4] > 100 µM | [5] > 100 µM | [6] > 100 µM | [7] > 100 µM | [8] > 100 µM | [9] > 100 µM | [10] > 100 µM | [11] > 100 µM | [12] > 100 µM | [13] > 100 µM | [14] > 100 µM | [15] > 100 µM | [16] > 100 µM | [17] > 100 µM | [18] > 100 µM | [19] > 100 µM | [20] > 100 µM

Cc1ccc(S(=O)(=O)N2C[C@](O)(c3ccccc3)[C@H]2C)cc1
inactive: [1] > 100 µM | [2] > 100 µM | [3] > 100 µM | [4] > 100 µM | [5] 51.1 µM | [6] > 100 µM | [7] > 100 µM | [8] > 100 µM | [9] > 100 µM | [10] > 100 µM | [11] > 100 µM | [12] > 100 µM | [13] > 100 µM | [14] > 100 µM | [15] > 100 µM | [16] > 100 µM | [17] > 100 µM | [18] > 100 µM | [19] > 100 µM | [20] > 100 µM
